In patent US20200267980A1, “Herbicidally Active Pyridyl-/Pyrimidyl-Pyrimidine Derivatives” (Syngenta Participations AG, priority 2017, published 2020):

What was measured:
Type in all cases: in vivo
[1] = tested on: Avena fatua (AVEFA); assay: Post-emergence herbicidal activity, glasshouse pot test; conditions: 1000 g/ha, post-emergence spray after 8 days cultivation, evaluated after 13 days, damage score 0-5
Experimental: (§1) Seeds of a variety of test species were sown in standard soil in pots: Triticum aestivium (TRZAW), Avena fatua (AVEFA), Alopecurus myosuroides (ALOMY), Echinochloa crus-galli (ECHCG), Lolium perenne (LOLPE), and Setaria faberi (SETFA). After 8 days cultivation (post-emergence) under controlled conditions in a glasshouse (at 24/16° C., day/night; 14 hours light; 65% humidity), the plants were sprayed with an aqueous spray solution derived from the formulation of the technical active ingredient in acetone/water (50:50) solution containing 0.5% Tween 20 (polyoxyethelyene sorbitan monolaurate, CAS RN 9005-64-5). The test plants were then grown in a glasshouse under controlled conditions (at 24/16° C., day/night; 14 hours light; 65% humidity) and watered twice daily. After 13 days, the test was evaluated (5=total damage to plant; 0=no damage to plant).

[2] = tested on: Avena fatua (AVEFA); assay: Pre-emergence herbicidal activity, glasshouse pot test; set-up: key: 5=total damage to plant; 0=no damage to plant; conditions: 1000 g/ha, pre-emergence spray, evaluated after 13 days, damage score 0-5
Experimental: as §1, with “After” for “After 8 days”, “for one day (pre-emergence)” for “(post-emergence)”

[3] = tested on: Triticum aestivium (TRZAW); assay: as above; set-up: key: 5=total damage to plant; 0=no damage to plant; conditions: 1000 g/ha, pre-emergence spray, evaluated after 13 days, damage score 0-5
Experimental: as §1, with “After” for “After 8 days”, “for one day (pre-emergence)” for “(post-emergence)”

[4] = tested on: Alopecurus myosuroides (ALOMY); assay: as above; set-up: key: 5=total damage to plant; 0=no damage to plant; conditions: 1000 g/ha, pre-emergence spray, evaluated after 13 days, damage score 0-5
Experimental: as §1, with “After” for “After 8 days”, “for one day (pre-emergence)” for “(post-emergence)”

[5] = tested on: Lolium perenne (LOLPE); assay: as above; set-up: key: 5=total damage to plant; 0=no damage to plant; conditions: 1000 g/ha, pre-emergence spray, evaluated after 13 days, damage score 0-5
Experimental: as §1, with “After” for “After 8 days”, “for one day (pre-emergence)” for “(post-emergence)”

[6] = tested on: Setaria faberi (SETFA); assay: as above; set-up: key: 5=total damage to plant; 0=no damage to plant; conditions: 1000 g/ha, pre-emergence spray, evaluated after 13 days, damage score 0-5
Experimental: as §1, with “After” for “After 8 days”, “for one day (pre-emergence)” for “(post-emergence)”

[7] = tested on: Echinochloa crus-galli (ECHCG); assay: as above; set-up: key: 5=total damage to plant; 0=no damage to plant; conditions: 1000 g/ha, pre-emergence spray, evaluated after 13 days, damage score 0-5
Experimental: as §1, with “After” for “After 8 days”, “for one day (pre-emergence)” for “(post-emergence)”

[8] = tested on: Triticum aestivium (TRZAW); assay: Post-emergence herbicidal activity, glasshouse pot test; set-up: key: 5=total damage to plant; 0=no damage to plant; conditions: 1000 g/ha, post-emergence spray after 8 days cultivation, evaluated after 13 days, damage score 0-5
Experimental: as §1

[9] = tested on: Alopecurus myosuroides (ALOMY); assay: as above; set-up: key: 5=total damage to plant; 0=no damage to plant; conditions: 1000 g/ha, post-emergence spray after 8 days cultivation, evaluated after 13 days, damage score 0-5
Experimental: as §1

[10] = tested on: Lolium perenne (LOLPE); assay: as above; set-up: key: 5=total damage to plant; 0=no damage to plant; conditions: 1000 g/ha, post-emergence spray after 8 days cultivation, evaluated after 13 days, damage score 0-5
Experimental: as §1

[11] = tested on: Setaria faberi (SETFA); assay: as above; set-up: key: 5=total damage to plant; 0=no damage to plant; conditions: 1000 g/ha, post-emergence spray after 8 days cultivation, evaluated after 13 days, damage score 0-5
Experimental: as §1

[12] = tested on: Echinochloa crus-galli (ECHCG); assay: as above; set-up: key: 5=total damage to plant; 0=no damage to plant; conditions: 1000 g/ha, post-emergence spray after 8 days cultivation, evaluated after 13 days, damage score 0-5
Experimental: as §1

Row | Structure (SMILES) | Control of weed species after post-emergence application, AVEFA [1] | Control of weed species after pre-emergence application, AVEFA [2] | Control of weed species after pre-emergence application, TRAZW [3] | Control of weed species after pre-emergence application, ALOMY [4] | Control of weed species after pre-emergence application, LOLPE [5] | Control of weed species after pre-emergence application, SETFA [6] | Control of weed species after pre-emergence application, ECHCG [7] | Control of weed species after post-emergence application, TRAZW [8] | Control of weed species after post-emergence application, ALOMY [9] | Control of weed species after post-emergence application, LOLPE [10] | Control of weed species after post-emergence application, SETFA [11] | Control of weed species after post-emergence application, ECHCG [12]
1 | O=C(C1CC1)N(C(=O)C1CC1)c1cnc(-c2cncc(F)c2)nc1C(F)(F)F [Compound F21] | 3 | 0 | 0 | 0 | 0 | 4 | 1 | 1 | 1 | 2 | 5 | 3
2 | O=C(Nc1cnc(-c2cncc(F)c2)nc1C(F)(F)F)C(Cl)Cl [Compound F8] | 2 | 1 | 1 | 0 | 1 | 4 | 4 | 1 | 1 | 2 | 5 | 4
3 | O=C(CCC1CCCC1)Nc1cnc(-c2cncnc2)nc1C(F)(F)F [Compound F17] | 2 | 1 | 0 | 0 | 0 | 4 | 3 | 1 | 0 | 1 | 4 | 4
4 | O=C(COc1ccccc1)Nc1cnc(-c2cncc(F)c2)nc1C(F)(F)F [Compound F18] | 3 | 1 | 0 | 0 | 0 | 4 | 3 | 1 | 0 | 1 | 4 | 4
5 | CC(C)(C)C(=O)Nc1cnc(-c2cncc(F)c2)nc1C(F)(F)F [Compound F6] | 3 | 2 | 0 | 0 | 1 | 3 | 4 | 1 | 1 | 2 | 4 | 5
6 | COCCC(=O)Nc1cnc(-c2cncnc2)nc1C(F)(F)F [Compound F16] | 3 | 1 | 0 | 0 | 1 | 5 | 4 | 1 | 1 | 2 | 5 | 5
7 | CC(C)C(=O)Nc1cnc(-c2cncnc2)nc1C(F)(F)F [Compound F32] | 3 | 1 | 1 | 1 | 1 | 4 | 4 | 1 | 1 | 2 | 4 | 4
8 | O=C(Nc1cnc(-c2cncc(F)c2)nc1C(F)(F)F)C1CCC1 [Compound F26] | 4 | 1 | 1 | 0 | 0 | 4 | 3 | 1 | 1 | 2 | 5 | 5
9 | CC(C)C(=O)N(C)c1cnc(-c2cncc(F)c2)nc1C(F)(F)F [Compound F20, N-[2-(5-fluoro-3-pyridyl)-4-(trifluoromethyl)pyrimidin-5-yl]-N,2-dimethyl-propanamide] | 4 | 3 | 1 | 0 | 1 | 5 | 4 | 2 | 1 | 3 | 5 | 5
